ChEMBL document CHEMBL1909046, “DrugMatrix in vitro pharmacology data”

Columns and labels:
[1] = biological target: T1, Cysteinyl leukotriene receptor 1 (Homo sapiens, UniProt Q9Y271); type: cell membranes, CHO-K1, Membrane; conditions: cho-k1; note: in other assays of this panel Not Active means under 50% inhibition at 10 µM
T1 sequence (Q9Y271 whole entry): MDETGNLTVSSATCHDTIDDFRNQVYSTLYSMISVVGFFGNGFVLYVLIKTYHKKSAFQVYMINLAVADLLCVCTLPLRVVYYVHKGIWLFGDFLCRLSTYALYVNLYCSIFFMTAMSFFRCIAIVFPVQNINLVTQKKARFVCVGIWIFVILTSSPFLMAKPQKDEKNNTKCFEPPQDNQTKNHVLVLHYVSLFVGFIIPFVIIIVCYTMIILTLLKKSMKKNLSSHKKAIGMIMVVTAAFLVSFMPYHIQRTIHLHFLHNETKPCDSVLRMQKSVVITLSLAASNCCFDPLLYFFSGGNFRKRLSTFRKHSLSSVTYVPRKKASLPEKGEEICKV

[2] = biological target: Protein phosphatase 3 catalytic subunit alpha (Homo sapiens, UniProt Q08209); set-up: species or system Escherichia coli;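 note: inhibition of calcineurin (PP2B) enzyme activity, measured with DiFMUP as the substrate; in other assays of this panel Not Active means under 50% inhibition at 10 µM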
[3] = DRUGMATRIX: Imidazoline I2, Central radioligand binding (ligand: [3H] Idazoxan); type: cell membranes, Rattus norvegicus, Wistar, Cerebral cortex, Membrane; conditions: Not Active = under 50% inhibition at 10 µM
Endothelin-1 receptor = biological target: T2, Endothelin-1 receptor (Homo sapiens, UniProt P25101); type: cell membranes, Membrane; conditions: cho-k1; note: in other assays of this panel Not Active means under 50% inhibition at 10 µM
T2 sequence (P25101 whole entry): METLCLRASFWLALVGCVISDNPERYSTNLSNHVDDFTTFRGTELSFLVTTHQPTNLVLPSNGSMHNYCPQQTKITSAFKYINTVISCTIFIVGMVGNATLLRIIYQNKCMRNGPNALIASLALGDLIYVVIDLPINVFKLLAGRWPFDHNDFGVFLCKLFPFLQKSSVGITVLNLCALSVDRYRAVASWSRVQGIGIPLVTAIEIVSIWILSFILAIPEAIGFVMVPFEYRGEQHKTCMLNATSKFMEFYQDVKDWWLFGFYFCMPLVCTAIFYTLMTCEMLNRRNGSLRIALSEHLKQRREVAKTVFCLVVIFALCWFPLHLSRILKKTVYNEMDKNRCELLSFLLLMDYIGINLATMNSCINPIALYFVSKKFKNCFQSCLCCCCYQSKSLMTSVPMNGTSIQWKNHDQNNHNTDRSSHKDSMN

Cytochrome P450 2A6 = biological target: T3, Cytochrome P450 2A6 (Homo sapiens, UniProt P11509); conditions: bti-tn-5b1-4; note: in other assays of this panel Not Active means under 50% inhibition at 10 µM
T3 sequence (P11509 whole entry): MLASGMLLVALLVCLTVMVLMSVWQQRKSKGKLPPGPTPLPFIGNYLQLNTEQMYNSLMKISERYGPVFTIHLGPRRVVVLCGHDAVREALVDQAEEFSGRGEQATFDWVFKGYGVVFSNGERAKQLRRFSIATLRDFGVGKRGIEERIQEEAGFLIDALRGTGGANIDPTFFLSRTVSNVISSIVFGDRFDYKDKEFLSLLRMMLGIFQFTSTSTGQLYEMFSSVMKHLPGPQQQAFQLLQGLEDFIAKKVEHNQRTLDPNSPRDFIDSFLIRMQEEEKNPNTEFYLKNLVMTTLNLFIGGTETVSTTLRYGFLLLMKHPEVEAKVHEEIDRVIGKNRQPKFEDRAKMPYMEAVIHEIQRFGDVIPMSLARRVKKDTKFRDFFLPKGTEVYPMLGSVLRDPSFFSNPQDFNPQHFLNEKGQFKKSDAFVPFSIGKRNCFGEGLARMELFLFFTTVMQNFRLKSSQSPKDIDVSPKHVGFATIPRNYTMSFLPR

Interstitial collagenase = biological target: T4, Interstitial collagenase (Homo sapiens, UniProt P03956); type: tissue-based, Rheumatoid synovial fibroblasts
T4 sequence (P03956 whole entry): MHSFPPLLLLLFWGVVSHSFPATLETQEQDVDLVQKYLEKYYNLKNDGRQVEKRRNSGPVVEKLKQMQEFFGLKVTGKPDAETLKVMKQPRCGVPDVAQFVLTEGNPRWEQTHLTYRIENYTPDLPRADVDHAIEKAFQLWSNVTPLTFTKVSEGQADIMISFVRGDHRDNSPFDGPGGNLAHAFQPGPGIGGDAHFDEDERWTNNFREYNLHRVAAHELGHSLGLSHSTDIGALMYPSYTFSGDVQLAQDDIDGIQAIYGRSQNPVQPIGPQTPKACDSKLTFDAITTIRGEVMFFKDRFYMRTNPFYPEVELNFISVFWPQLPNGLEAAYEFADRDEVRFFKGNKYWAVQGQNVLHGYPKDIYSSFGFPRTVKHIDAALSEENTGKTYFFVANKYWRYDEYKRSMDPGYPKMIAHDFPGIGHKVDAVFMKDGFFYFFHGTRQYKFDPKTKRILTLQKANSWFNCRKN

[4] = biological target: T5, 3-hydroxy-3-methylglutaryl-coenzyme A reductase (Homo sapiens, UniProt P04035); set-up: species or system Escherichia coli
T5 sequence (P04035 whole entry): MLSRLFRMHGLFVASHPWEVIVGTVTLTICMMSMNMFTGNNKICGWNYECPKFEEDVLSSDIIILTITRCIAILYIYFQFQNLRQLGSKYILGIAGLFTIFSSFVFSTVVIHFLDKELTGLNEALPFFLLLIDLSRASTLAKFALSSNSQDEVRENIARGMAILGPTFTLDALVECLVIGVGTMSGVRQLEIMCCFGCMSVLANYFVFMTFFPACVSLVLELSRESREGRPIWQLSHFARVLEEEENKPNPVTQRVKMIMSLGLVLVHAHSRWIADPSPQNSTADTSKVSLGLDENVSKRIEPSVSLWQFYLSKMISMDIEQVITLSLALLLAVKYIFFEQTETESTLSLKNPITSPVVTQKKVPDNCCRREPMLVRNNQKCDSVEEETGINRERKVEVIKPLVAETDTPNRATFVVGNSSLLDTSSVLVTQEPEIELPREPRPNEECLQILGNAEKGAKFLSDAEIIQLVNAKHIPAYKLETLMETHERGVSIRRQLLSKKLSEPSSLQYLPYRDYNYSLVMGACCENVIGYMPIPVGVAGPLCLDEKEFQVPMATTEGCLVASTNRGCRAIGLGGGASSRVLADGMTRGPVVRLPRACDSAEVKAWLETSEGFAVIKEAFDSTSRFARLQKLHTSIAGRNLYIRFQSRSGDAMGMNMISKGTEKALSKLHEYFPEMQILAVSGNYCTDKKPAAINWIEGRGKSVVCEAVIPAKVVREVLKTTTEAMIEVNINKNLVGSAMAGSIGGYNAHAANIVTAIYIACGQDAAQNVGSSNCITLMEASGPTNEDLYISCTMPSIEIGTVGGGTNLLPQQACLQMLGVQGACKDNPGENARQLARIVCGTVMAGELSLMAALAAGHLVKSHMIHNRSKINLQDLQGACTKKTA

CC(=O)[C@H]1CC[C@H]2[C@@H]3CCC4=CC(=O)CC[C@]4(C)[C@H]3CC[C@]12C [PROGESTERONE]
Not Active: IC50 [1] | IC50 [2] | IC50 [3] | Ki [3] | IC50 (Endothelin-1 receptor) | IC50 (Cytochrome P450 2A6) | Ki (Cytochrome P450 2A6) | IC50 (Interstitial collagenase) | IC50 [4]

NC(=O)c1ncn([C@@H]2O[C@H](CO)[C@@H](O)[C@H]2O)n1 [RIBAVIRIN]
Not Active: IC50 [1] | IC50 [2] | IC50 [3] | Ki [3] | IC50 (Endothelin-1 receptor) | IC50 (Cytochrome P450 2A6) | Ki (Cytochrome P450 2A6) | IC50 (Interstitial collagenase) | IC50 [4]

O=[N+]([O-])c1cc([As](=O)(O)O)ccc1O [ROXARSONE]
Not Active: IC50 [1] | Ki [1] | IC50 [2] | Ki [2] | IC50 [3] | Ki [3] | IC50 (Endothelin-1 receptor) | Ki (Endothelin-1 receptor) | IC50 (Cytochrome P450 2A6) | Ki (Cytochrome P450 2A6) | IC50 (Interstitial collagenase) | Ki (Interstitial collagenase) | IC50 [4] | Ki [4]

CC[C@H]1OC(=O)[C@H](C)[C@@H](O[C@H]2C[C@@](C)(OC)[C@@H](O)[C@H](C)O2)[C@H](C)[C@@H](O[C@@H]2O[C@H](C)C[C@H](N(C)C)[C@H]2O)[C@](C)(O)C[C@@H](C)/C(=N\OCOCCOC)[C@H](C)[C@@H](O)[C@]1(C)O [ROXITHROMYCIN]
Not Active: IC50 [1] | IC50 [2] | IC50 [3] | Ki [3] | IC50 (Endothelin-1 receptor) | IC50 (Cytochrome P450 2A6) | Ki (Cytochrome P450 2A6) | IC50 (Interstitial collagenase) | IC50 [4]

NC(=O)c1ccccc1O [SALICYLAMIDE]
Not Active: IC50 [1] | IC50 [2] | IC50 [3] | Ki [3] | IC50 (Endothelin-1 receptor) | IC50 (Cytochrome P450 2A6) | Ki (Cytochrome P450 2A6) | IC50 (Interstitial collagenase) | IC50 [4]

Cc1ncc([N+](=O)[O-])n1CC(C)O (configuration not stated) [SECNIDAZOLE]
Not Active: IC50 [1] | IC50 [2] | IC50 [3] | Ki [3] | IC50 (Endothelin-1 receptor) | IC50 (Cytochrome P450 2A6) | Ki (Cytochrome P450 2A6) | IC50 (Interstitial collagenase) | IC50 [4]

CC(=O)S[C@@H]1CC2=CC(=O)CC[C@]2(C)[C@H]2CC[C@@]3(C)[C@@H](CC[C@@]34CCC(=O)O4)[C@H]12 [SPIRONOLACTONE]
Not Active: IC50 [1] | IC50 [2] | IC50 [3] | Ki [3] | IC50 (Endothelin-1 receptor) | IC50 (Cytochrome P450 2A6) | Ki (Cytochrome P450 2A6) | IC50 (Interstitial collagenase) | IC50 [4]

C[C@]12Cc3c[nH]nc3C[C@@H]1CC[C@@H]1[C@@H]2CC[C@@]2(C)[C@H]1CC[C@]2(C)O [STANOZOLOL]
Not Active: IC50 [1] | IC50 [2] | IC50 [3] | Ki [3] | IC50 (Endothelin-1 receptor) | IC50 (Cytochrome P450 2A6) | Ki (Cytochrome P450 2A6) | IC50 (Interstitial collagenase) | IC50 [4]

CN(N=O)C(=O)N[C@@H](C=O)[C@@H](O)[C@H](O)[C@H](O)CO [STREPTOZOCIN]
Not Active: IC50 [1] | IC50 [2] | IC50 [3] | Ki [3] | IC50 (Endothelin-1 receptor) | IC50 (Cytochrome P450 2A6) | Ki (Cytochrome P450 2A6) | IC50 (Interstitial collagenase) | IC50 [4]

Cc1cc(NS(=O)(=O)c2ccc(N)cc2)no1 [SULFAMETHOXAZOLE]
Not Active: IC50 [1] | IC50 [2] | IC50 [3] | Ki [3] | IC50 (Endothelin-1 receptor) | IC50 (Cytochrome P450 2A6) | Ki (Cytochrome P450 2A6) | IC50 (Interstitial collagenase) | IC50 [4]

Nc1ccc(S(N)(=O)=O)cc1 [SULFANILAMIDE]
Not Active: IC50 [1] | IC50 [2] | IC50 [3] | Ki [3] | IC50 (Endothelin-1 receptor) | IC50 (Cytochrome P450 2A6) | Ki (Cytochrome P450 2A6) | IC50 (Interstitial collagenase) | IC50 [4]

Nc1ccc(S(=O)(=O)Nc2ccnn2-c2ccccc2)cc1 [SULFAPHENAZOLE]
Not Active: IC50 [1] | IC50 [2] | IC50 [3] | Ki [3] | IC50 (Endothelin-1 receptor) | IC50 (Cytochrome P450 2A6) | Ki (Cytochrome P450 2A6) | IC50 (Interstitial collagenase) | IC50 [4]

C=CC[C@@H]1/C=C(\C)C[C@H](C)C[C@H](OC)[C@H]2O[C@@](O)(C(=O)C(=O)N3CCCC[C@H]3C(=O)O[C@H](/C(C)=C/[C@@H]3CC[C@@H](O)[C@H](OC)C3)[C@H](C)[C@@H](O)CC1=O)[C@H](C)C[C@@H]2OC [TACROLIMUS ANHYDROUS]
Not Active: IC50 [1] | IC50 [2] | IC50 [3] | Ki [3] | IC50 (Endothelin-1 receptor) | IC50 (Cytochrome P450 2A6) | Ki (Cytochrome P450 2A6) | IC50 (Interstitial collagenase) | IC50 [4]
